Test results from ChEMBL document CHEMBL1156829 (Proc Natl Acad Sci U S A, 2008).
Several values for one entry are separate records, joined by “and”; a condition that tells them apart may be missing. Identical values can stand only once.

Key:
Plasmodium falciparum [1] = test: NOVARTIS: Inhibition of Plasmodium falciparum 3D7 (drug-susceptible) proliferation in erythrocyte-based infection assay; assay type: functional, organism-based
Plasmodium falciparum [2] = test: NOVARTIS: Inhibition of Plasmodium falciparum W2 (drug-resistant) proliferation in erythrocyte-based infection assay; assay type: functional, organism-based; details: read-out: EC50
[3] = NOVARTIS: Cytotoxicity against human hepatocellular carcinoma cell line (Huh7); assay type: toxicity, cell-based, Huh-7; details: Huh7 cells (hepatocellular carcinoma cell line)

Compound	EC50 (Plasmodium falciparum [1]; Plasmodium falciparum, 3D7)	EC50 (Plasmodium falciparum [2]; Plasmodium falciparum, W2)	CC50 [3]	EC50 (Plasmodium falciparum [1])	EC50 (Plasmodium falciparum [2])
CC[n+]1c(/C=C/C=C2\N(C)c3ccccc3C2(C)C)n(-c2ccccc2)c2cc(Cl)ccc21	0.287 µM	0.53 µM	1.69 µM	–	–
Cc1ccc(-c2cn3c([n+]2-c2ccc(C)cc2)CCCCC3)cc1	0.999 µM	0.459 µM	10.9 µM	–	–
Cc1ccc(C)c(N2C(=O)CC(Cc3ccc(Cl)cc3)C2=O)c1 (stereo not drawn)	> 1.25 µM	1.23 µM	> 10 µM	–	–
CC(=O)N1CCc2cc(Br)cc(S(=O)(=O)N(CC(C)C)CC(C)C)c21	1.22 µM	0.27 µM	–	–	–
Cc1cccc(NC(c2cccc(F)c2)c2ccc3cccnc3c2O)n1 (stereo not drawn)	1.71 µM	0.88 µM	–	–	–
CCC(C)NC(=O)c1nn(-c2ccc(Cl)cc2)c(=O)c2ccccc12 (stereo not drawn)	0.285 µM	0.696 µM	–	–	–
CC[n+]1cc(C)ccc1C=Cc1ccc(N(C)C)cc1	–	0.386 µM	–	0.521 µM	–
Cc1ccc(NC(=O)C2C3C=CC4(O3)C2C(=O)N(CCCN2CCOCC2)C4C(=O)NC2CCCC(C)C2C)cc1Cl (stereo not drawn)	> 1.63 µM	> 0.117 µM	–	–	–
CC(C)CN1C(=O)c2ccccc2C(C(=O)Nc2cccc(C(F)(F)F)c2)C1c1cccs1 (stereo not drawn)	–	–	> 100 µM	–	–
O=C1/C(=C/c2ccccc2)SC(=Nc2ccccc2)N1C1CCCCC1	1.2 µM	> 1.25 µM	–	–	–
CCOC(=O)c1c(-c2ccc3c(c2)OCO3)[nH]c2cc(OC)ccc2c1=O	0.127 µM	0.18 µM	–	–	–
COc1ccc(-c2cc(C(F)(F)F)n3ncc(C(=O)NCc4ccccc4)c3n2)cc1	> 1.25 µM	1.54 µM	–	–	–
Cc1ccnc(Nc2nc(-c3ccccn3)cs2)c1	0.113 µM	0.0463 µM	–	–	–
CCOC(=O)c1c(-c2ccc3c(c2)OCO3)[nH]c2cccc(OC)c2c1=O	–	–	> 10 µM	–	–
CN[C@@H]1CC2O[C@@](C)([C@@H]1OC)n1c3ccccc3c3c4c(c5c6ccccc6n2c5c31)C(=O)NC4	–	–	0.355 µM	–	–
COc1ccc(C2C(C(=O)c3ccc(C)cc3)=C(O)C(=O)N2CCN2CCOCC2)c(OC)c1 (stereo not drawn)	> 0.05 µM	> 1.25 µM	–	–	–
CN(C)c1ccc(/C=C2\N=C(c3ccccc3F)OC2=O)cc1	> 1.25 µM	> 1.21 µM	–	–	–
CCOC(=O)C1=C(C)N=c2sc(=Cc3cc(Cl)ccc3O)c(=O)n2C1c1ccc(OC)c(OC)c1 (stereo not drawn)	–	–	> 100 µM	–	1.45 µM and 0.264 µM
CC1=NN(c2ccccc2)C(=O)C1=NNc1c(Br)cc(Br)cc1Br	> 1.25 µM	> 1.05 µM	–	–	–
CC(C)CC[n+]1ccccc1C=Cc1ccc(N(C)C)cc1	–	–	–	0.747 µM	0.548 µM
COc1ccc2ccccc2c1C1NC(SCc2ccc(F)cc2)=NC(C)=C1C(C)=O (stereo not drawn)	> 1.61 µM	0.702 µM	–	–	–

Compound	EC50 (Plasmodium falciparum [1]; Plasmodium falciparum, 3D7)	EC50 (Plasmodium falciparum [2]; Plasmodium falciparum, W2)	CC50 [3]	EC50 (Plasmodium falciparum [1])	EC50 (Plasmodium falciparum [2])
O=C(NC(=S)Nc1ccc(-c2nc3ccccc3s2)cc1)c1ccc(S(=O)(=O)N2CCCC2)cc1	2.05 µM	> 1.59 µM	–	–	–
O=[N+]([O-])c1ccc(C2OC3C(c4ccc(Cl)cc4)=Nc4ccccc4N3C2c2ccc([N+](=O)[O-])cc2)cc1 (stereo not drawn)	> 1.25 µM	0.709 µM	–	–	–
CN(C)c1ccc(C=C2SC(=Nc3ccccc3)NC2=O)cc1	0.0271 µM	–	> 74.4 µM	–	–
CCCOc1ccc(C(=O)C2=C(O)C(=O)N(CCN3CCOCC3)C2c2ccc(F)cc2)c(C)c1 (stereo not drawn)	> 1.25 µM	> 0.896 µM	–	–	–
COc1ccc(OC)c(C=NNC(=O)Cc2cc(O)n[nH]2)c1	> 1.25 µM	1.94 µM	–	–	–
CC(C)CN1C(=O)c2ccccc2C(C(=O)Nc2ccccc2F)C1c1cccs1 (stereo not drawn)	–	–	> 100 µM	–	–
CCc1nc(N)nc(N)c1-c1ccccc1	1.55 µM	> 1.25 µM	–	–	–
Cc1ccc(N=C(Nc2ccc(C)cc2)Nc2ccccc2O)cc1	1.53 µM	0.231 µM	–	–	–
O=C1CCC(=O)N1c1ccc(CSc2nc3ccccc3[nH]2)cc1	> 0.281 µM	> 1.25 µM	–	–	–
COc1cnc(-c2ccccn2)nc1N1CCCC1	0.489 µM	0.648 µM	–	–	–
CCN1/C(=C/c2sc3ccc(-c4ccccc4)cc3[n+]2CCO)C=Cc2cc(OC)ccc21	0.487 µM	0.945 µM	–	–	–
CCCCOc1ccc(/C=C(/C#N)c2nc(-c3ccc(-c4ccccc4)cc3)cs2)cc1	> 1.25 µM	> 0.774 µM	–	–	–
Cc1cc2cc3c(cc2c(C)n1)c1ccccc1n3C	1.27 µM	1.1 µM	–	–	–
COc1ccc(-c2nc(-c3ccc(-c4[nH]c(-c5ccc(OC)cc5)nc4-c4ccccc4)cc3)c(-c3ccccc3)[nH]2)cc1	1.29 µM	> 1.25 µM	–	–	–
COc1cccc(NC(=O)C2C3C=CC4(O3)C2C(=O)N(CC2COc3ccccc3O2)C4C(=O)NC2CCCCC2)c1 (stereo not drawn)	> 1.25 µM	> 0.0537 µM	–	–	–
Cc1cc(Nc2ccc(C)c(F)c2)n2nc(C)nc2n1	1.04 µM	–	> 100 µM	–	–
N#CCSc1nc2c(sc(=S)n2-c2ccccc2)c(=O)n1Cc1ccco1	> 1.35 µM	0.715 µM	–	–	–
COC(=O)c1ccc(C2C3=C(O)CC(c4ccco4)CC3=Nc3ccccc3N2C(=O)c2ccccc2)cc1 (stereo not drawn)	0.387 µM	–	> 100 µM	0.579 µM	–
Cc1cc(/C=C2\SC(=Nc3ccccc3)N(C3CCCCC3)C2=O)c(C)n1-c1ccc(F)cc1	–	0.383 µM	> 100 µM	–	0.68 µM
COc1cc2c(cc1OC)C1=NNC(=O)C1=NC(C)(C)C2	> 1.58 µM	0.793 µM	–	–	–
